The values that follow come from article PMC6943434, “Novel Homo-Bivalent and Polyvalent Compounds Based on Ligustrazine and Heterocyclic Ring as Anticancer Agents” (Molecules, 2019).

Read-outs that look alike come from different tables or passages of the source. Bounds are passed on as bounds.

Experiment [1] deals with FaDu (head and neck squamous carcinoma cell line). Briefly: MTT cell viability assay, FaDu. As to conditions: for IC50: Homo sapiens, FaDu, 48 h, MTT, read-out: Antiproliferative Activity IC50 ± SEM, FaDu; for SI: selectivity index: SI = IC50 (MCF 10A)/IC50 (FaDu). Format: cell-based, human. Background: Tetrazolium dyes change colour on reduction, which living cells bring about.

In experiment [2] the test system is MCF-7 (breast cancer cell line). As to the kind of experiment: MTT cell viability assay, MCF-7. Format: cell-based. Particulars: Homo sapiens, MCF7, 48 h, read-out: Antiproliferative Activity IC50 ± SEM, MCF-7.
Experiment [3] deals with MCF 10A (normal mammary epithelial cell). Briefly: MTT cell viability assay, MCF 10A. Format: cell-based. Particulars: Homo sapiens, 48 h, normal cells, read-out: Antiproliferative Activity IC50 ± SEM, MCF 10A.
Experiment [4] deals with A549 (epithelial cancer cell line). As to the kind of experiment: MTT cell viability assay, A549. Particulars: Homo sapiens, 48 h, read-out: Antiproliferative Activity IC50 ± SEM, A549. Format: cell-based.
Experiment [5] has as its system FaDu cells. Briefly: Cell cycle analysis by PI staining. Particulars: 24 h; for percentage of cells in the S phase: control 28.1%; for population of the G0/G1 phase: control 51.9%. Format: cell-based, human. On the procedure: The cell cycle analysis was carried out by a cell cycle and apoptosis analysis kit with a propidium iodide (PI) staining method (Beyotime Institute of Biotechnology, Shanghai, China). Briefly, FaDu cells were incubated with the above-mentioned doses of compound 8e for 24 h; all samples were collected, washed once with cold 1× PBS, and fixed by 70% ice-cold ethanol at 4 °C for 12 h. Then, the fixed cells were washed once with cold 1× PBS and stained with 500 µL 1× PI dye solution (containing 10 µL RNase A) at 37 °C for 30 min in the dark. The red fluorescence was detected using a flow cytometer (CyFlow® Cube 6, Sysmex). The data were analyzed using FlowJo Software (Tree Star Inc, Ashland, OR, USA).

The test system of experiment [6] is FaDu cells. Briefly: Colony formation assay. Format: cell-based. As to conditions: Homo sapiens, 240 h, 6 nM, 10 days, read-out: colony inhibition rate. As for the experimental part:
FaDu cells were seeded in a 6-well plate with 500 cells per well and incubated for 24 h. Then, the cells were treated with compound 8e at various final concentrations of 0, 0.75, 1.50, 3 nM. Following treatment for 10 days, the cells were washed with PBS twice and fixed with 4% paraformaldehyde for 10 min at room temperature. Then, the cell colonies were visualized by staining with 0.1% crystal violet for 10 min. The image was photographed with Handy camera, and the numbers of cell colonies were analyzed using the open Image J software (Developed by National Institutes of Health). A group of >50 cells was defined as one colony. Triplicate wells were set up for each concentration.

The subject of experiment [7] is Hep G2 (hepatocarcinoma cell line). Briefly: MTT cell viability assay, Hep G2. Format: cell-based. As to conditions: Homo sapiens, HepG2, 48 h, read-out: Antiproliferative Activity IC50 ± SEM, Hep G2.
Experiment [8] concerns HeLa, Hep G2, MCF-7, FaDu, A549, MCF 10A. As to the kind of experiment: MTT cell viability assay, summary over the cell line panel. Format: cell-based, human. Particulars: 48 h, span over the cell lines, read-out: IC50 range over tested cell lines. On the procedure: The tested cells were obtained from Shanghai Institute of Biochemistry and Cell Biology of the Chinese Academy of Sciences (Shanghai, China). HeLa and Hep G2 cell lines were cultured in Dulbecco’s modified Eagle’s medium (DMEM; gibco, Life Technologies, Carlsbad, CA, USA) supplemented with 10% fetal bovine serum (FBS; Biological Industries), 100 U/mL penicillin-streptomycin (PS; gibco, Life Technologies, Carlsbad, CA, USA). MCF-7 and A549 cell lines were maintained in RPMI-1640 media (gibco, Life Technologies, Carlsbad, CA, USA) supplemented with 10% FBS and 100 U/mL PS. FaDu cell lines were cultured in minimum essential medium (MEM; Gibco, Life Technologies, Carlsbad, CA, USA) supplemented with 10% FBS and 100 U/mL PS. MCF 10A cell lines were maintained in Mammary MEGM kit (Lonza/Clonetics) supplemented with 100 ng/mL cholera toxin (Sigma, Shanghai, China). Cell lines were grown at 37 °C in a humidified atmosphere of 5% CO2.
The growth-inhibitory effects against HeLa, Hep G2, MCF-7, FaDu, and A549 cancer cells and normal cell lines MCF 10A were determined by MTT assay. […] Cells were seeded in 96 well plates at a density of 1 × 10^4 cells per well and incubated for 24 h at 37 °C in a humidified atmosphere of 5% CO2. The cells were then incubated with various concentrations of drugs for 48 h in a 5% CO2 incubator at 37 °C. After treatment with 1 mg/mL 3-(4,5-dimethylthiazol-2-yl)-2,5-diphenyltetrazolium bromide (MTT) solution for 4 h, the formazan crystals were dissolved in 100 µL DMSO in each well. Plates were read on a microplate reader (Thermo Varioskan Flash 3001) at 490 nm. The experiment was performed in triplicate. The inhibitory concentration at 50% (IC50) was calculated based on concentration-inhibition relationships via regression using SPSS software (Version 17.0).

The test system of experiment [9] is FaDu cells. Briefly: Flow cytometric analysis of apoptosis by annexin V-FITC/PI staining. Format: cell-based, human. As to conditions: 24 h, control 8.23%. As for the experimental part:
Apoptosis in FaDu cells was evaluated by an annexin V-FITC/PI apoptosis detection kit (Beyotime Institute of Biotechnology, Shanghai, China). Briefly, FaDu cells were treated with various concentrations of compound 8e (2, 5, 10 nM) or DMSO as vehicle control for 24 h at 37 °C; then, the cells were washed twice with cold 1× PBS and centrifuged at 1000 rpm for 5 min. The harvested cells were resuspended gently in 400 µL binding buffer, containing 5 µL annexin V-FITC and 10 µL PI. After incubating for 15 min in the dark at room temperature, the cells were analyzed with flow cytometry (CyFlow® Cube 6, Sysmex). Data were shown as pseudo color graphs and analyzed using FlowJo Software (Tree Star Inc, Ashland, OR).
In general terms: A flow cytometer gives signals particle by particle.

Experiment [10] has as its system HeLa (cervical cancer cell line). As to the kind of experiment: MTT cell viability assay, HeLa. Format: cell-based. Particulars: Homo sapiens, 48 h, read-out: Antiproliferative Activity IC50 ± SEM, HeLa.

As for `Cc1nc(C)c(C(=O)NCCCCCCCCCCNC(=O)c2nc(C)c(C)nc2C)nc1C` [Compound 8e, N,N′-(Decane-1,10-Diyl)Bis(3,5,6-Trimethylpyrazine-2-Carboxamide)], the IC50 (usually the point on the concentration scale where inhibition reaches its midpoint) in [1] was 0.00136 ± 0.00035 µM; in experiment [2] it was 0.037 ± 0.001 µM; in experiment [3], 0.047 ± 0.008 µM; in experiment [4] it was 1.05 ± 0.05 µM; in experiment [7], above 20 µM; in experiment [8], 0.00136 to 1.42 µM. In addition, in experiment [10], the IC50 turned out to be 1.42 ± 0.71 µM. Moreover, the “SI: selectivity index” value in [1] stood at 34.56. Further, the entries for the “percentage of cells in the S phase” value in experiment [5] (2 nM), in experiment [5] (5 nM) and in experiment [5] (10 nM) were 33.7%, 44.3% and 54.7%, respectively. Besides, the “population of the G0/G1 phase” value is 41.8% in [5] (2 nM), 44.2% in [5] (5 nM) and 32.4% in experiment [5] (10 nM). For the same compound, the inhibition (usually the share of the control response that was lost under treatment) at 0.006 µM in [6] is around 85.4%. The “apoptotic cells (early and late apoptosis ratios)” value in experiment [9] (2 nM) is 34.2%; in [9] (5 nM) it was 57.7%; in experiment [9] (10 nM), 79.5%.
On to `Cc1nc(C)c(CN(CCCCCCCCCCCCN(Cc2nc(C)c(C)nc2C)Cc2nc(C)c(C)nc2C)Cc2nc(C)c(C)nc2C)nc1C` [Compound 6g, N^1,N^1,N^12,N^12-Tetrakis((3,5,6-Trimethylpyrazin-2-yl)Methyl)Dodecane-1,12-Diamine], for which the IC50 in experiment [1] was 6.8 ± 0.05 µM; in experiment [2] it was 9.83 ± 0.17 µM; in [3], 6.57 ± 0.3 µM; in experiment [4] it was 9.23 ± 0.16 µM; in experiment [7] it was 9.62 ± 0.11 µM; in experiment [8] (Homo sapiens), 6.57 to 20.8 µM. Besides, in experiment [10], the IC50 amounted to 7.89 ± 0.86 µM. Also, the “SI: selectivity index” value in [1] was found to be 0.97.
